Data reported in paper PMC9032718, “Eltrombopag as an Allosteric Inhibitor of the METTL3-14 Complex Affecting the m^6A Methylation of RNA in Acute Myeloid Leukemia Cells” (Pharmaceuticals, 2022).

Legend:
METTL3-14 complex = biological target: T1, METTL3-14 complex (Homo sapiens, UniProt Q86U44); assay: METTL3-14 enzyme-based bioluminescence assay (screening assay); type: biochemical; conditions: IC50 not affected by SAM 50-1600 nM or RNA 25-800 nM
T1 construct: genes encoding the full-length and MTase domain of human METTL3; METTL3-14 FL: full length of METTL3-14; 10x His (thrombin-cleavable) (cleaved yes); made in house; host or cells: Trichoplusia ni (Hi5) cells co-infected with two baculoviruses (virus made in Sf9)
Experimental: (§1) An enzymatic bioluminescence assay was established to identify the METTL3-14 inhibitor through screening. […] METTL3-14 activity was assessed by measuring the luminescence using a Victor multilabel reader (PerkinElmer, Waltham, MA, USA). The IC50 values were calculated by a nonlinear regression analysis using OriginPro 9.1 software (OriginLab).
(§2) To confirm the mechanism of action of eltrombopag in the METTL3-14 complex, 30 nM METTL3-14 and serially diluted eltrombopag were reacted with various concentrations of SAM or RNA substrate and saturating concentrations of the other substrate (3 μM SAM or 2 μM RNA substrate) for 20 min. To evaluate the inhibitory activity in a single form of METTL3 and METTL14, 1 μM of METTL3 and 300 nM of METTL14 were incubated with 1 μM of SAM, 500 nM of RNA substrates, and serially diluted eltrombopag for 5 h. To measure the inhibitory activity in the truncated form of the METTL3-14 complex, 1 μM of the truncated METTL3-14 complex was reacted with 1 μM of SAM, 500 nM of RNA substrates, and serially diluted eltrombopag for 5 h.

PRMT1 = biological target: T2, PRMT1 (Homo sapiens, UniProt Q99873); assay: Methyltransferase selectivity panel (MT HotSpot radioisotope assay), PRMT1; type: biochemical; conditions: 10 μM eltrombopag
T2 construct: purchased Reaction Biology (Malvern, PA, USA), contract assay
Text: The selectivity profile of eltrombopag was investigated by testing the level of inhibition in a methyltransferase panel.

METTL3 = biological target: T3, METTL3 (Homo sapiens, UniProt Q86U44); assay: Bioluminescence enzyme assay, single form of METTL3; type: biochemical; conditions: 1 μM METTL3, 1 μM SAM, 500 nM RNA, 5 h; read-out: IC50, single subunit enzyme form of METTL3
T3 construct: 10x His (thrombin-cleavable); made in house; host or cells: insect cells, baculovirus (pVL1393)
Experimental: as §1, §2

METTL14 = biological target: T4, METTL14 (Homo sapiens, UniProt Q9HCE5); assay: Bioluminescence enzyme assay, single form of METTL14; type: biochemical; conditions: 36 μM eltrombopag; 300 nM METTL14, 5 h; read-out: % inhibition, single subunit enzyme form of METTL14
T4 construct: 10x His (thrombin-cleavable); made in house; host or cells: insect cells, baculovirus (pVL1393)
T4 sequence (Q9HCE5 1-456): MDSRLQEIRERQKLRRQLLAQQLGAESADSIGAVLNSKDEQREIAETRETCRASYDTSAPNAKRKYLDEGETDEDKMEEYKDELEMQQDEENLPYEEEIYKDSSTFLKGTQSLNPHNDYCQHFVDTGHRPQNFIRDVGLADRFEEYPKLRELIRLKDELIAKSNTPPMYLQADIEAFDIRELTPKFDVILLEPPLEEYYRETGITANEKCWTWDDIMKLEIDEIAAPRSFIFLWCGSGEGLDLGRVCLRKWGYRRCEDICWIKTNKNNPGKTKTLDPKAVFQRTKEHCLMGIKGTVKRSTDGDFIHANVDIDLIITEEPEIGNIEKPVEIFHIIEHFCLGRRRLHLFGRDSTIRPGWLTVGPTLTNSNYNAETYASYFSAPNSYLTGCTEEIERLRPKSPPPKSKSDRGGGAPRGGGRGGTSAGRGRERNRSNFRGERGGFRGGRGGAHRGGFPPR
Experimental: as §1, §2

[1] = biological target: T5, truncated METTL3-14 complex (Homo sapiens, UniProt Q86U44); assay: Bioluminescence enzyme assay, truncated form of METTL3-14 (methyltransferase domain); type: biochemical
T5 construct: MTase domain of human METTL3 (residues 369 to 580); METTL14 (residues 106 to 396); 10x His (thrombin-cleavable) (cleaved yes); made in house; host or cells: Trichoplusia ni (Hi5) cells co-infected with two baculoviruses
Experimental: as §1, §2

MOLM-13 cells [2] = assay: Anti-proliferative assay (EZ-cytox), MOLM-13; type: cell-based; conditions: Homo sapiens, MOLM-13, 72 h
Experimental: (§3) The MOLM-13, MOLM-14, HL60, MV4-11, and THP-1 cells were seeded in white 96-well clear bottomed plates with 100 μL of medium (5000 cells/well). The plated cells were treated with serially diluted compounds and incubated for 72 h at 37 °C. After incubation, 10 μL of EZ-cytox kit reagent from the EZ-cytox cell viability assay kit (DaeiLab, Seoul, Korea) was added to each well and then incubated for 3 h at 37 °C. The absorbance of metabolically active cells was measured at a wavelength of 450 nm using a Victor multilabel reader (PerkinElmer). The GI50 values were calculated by nonlinear regression analysis using OriginPro 9.1 software (OriginLab).

HL60 cells = assay: Anti-proliferative assay (EZ-cytox), HL60; type: cell-based; conditions: Homo sapiens, HL-60, 72 h
Experimental: as §3

MV4-11 cells = assay: Anti-proliferative assay (EZ-cytox), MV4-11; type: cell-based; conditions: Homo sapiens, MV4-11, 72 h
Experimental: as §3

THP-1 cells = assay: Anti-proliferative assay (EZ-cytox), THP-1; type: cell-based; conditions: Homo sapiens, THP-1, 72 h
Experimental: as §3

MOLM-13 cells [3] = assay: Combinatorial analysis of AML drugs with eltrombopag (EZ-cytox, Synergyfinder); type: cell-based; conditions: Homo sapiens, MOLM-13; for inhibition at 1.5 µM: MOLM-13, eltrombopag alone 1,500 nM; for inhibition at 3 µM: MOLM-13, eltrombopag alone 3,000 nM; for inhibition at 6 µM: MOLM-13, eltrombopag alone 6,000 nM; for inhibition at 12 µM: MOLM-13, eltrombopag alone 12,000 nM
Experimental: The MOLM-13 cells were seeded in white 96-well clear bottomed plates with 50 μL of medium (5000 cells/well). The plated cells were treated with serially diluted eltrombopag and current AML drugs, including venetoclax, cytarabine, gilteritinib, and sorafenib, to a final volume of 100 μL and incubated for 72 h at 37 °C. After incubation, 10 μL of EZ-cytox kit reagent from the EZ-cytox cell viability assay kit (DaeiLab) was added to each well and then incubated for 3 h at 37 °C. The absorbance of metabolically active cells was measured at a wavelength of 450 nm using a Victor multilabel reader (PerkinElmer). The synergy scores of each combination were quantified by the HAS model, ZIP model, Loewe additivity model, and Bliss independence models using Synergyfinder software. Positive or negative synergy scores obtained through these models represent synergy and antagonism, respectively.

[4] = set-up: method as in PMID 30305280, PMID 30002802; conditions: cited from earlier work

T5 sequence (Q86U44 369-580, one chain of several): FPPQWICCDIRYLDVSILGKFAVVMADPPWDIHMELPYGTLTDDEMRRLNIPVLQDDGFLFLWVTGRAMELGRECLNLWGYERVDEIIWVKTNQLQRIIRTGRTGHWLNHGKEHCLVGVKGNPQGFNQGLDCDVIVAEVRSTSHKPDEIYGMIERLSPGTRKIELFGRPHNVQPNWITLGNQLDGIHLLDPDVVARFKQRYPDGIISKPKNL
T2 sequence (Q99873 whole entry): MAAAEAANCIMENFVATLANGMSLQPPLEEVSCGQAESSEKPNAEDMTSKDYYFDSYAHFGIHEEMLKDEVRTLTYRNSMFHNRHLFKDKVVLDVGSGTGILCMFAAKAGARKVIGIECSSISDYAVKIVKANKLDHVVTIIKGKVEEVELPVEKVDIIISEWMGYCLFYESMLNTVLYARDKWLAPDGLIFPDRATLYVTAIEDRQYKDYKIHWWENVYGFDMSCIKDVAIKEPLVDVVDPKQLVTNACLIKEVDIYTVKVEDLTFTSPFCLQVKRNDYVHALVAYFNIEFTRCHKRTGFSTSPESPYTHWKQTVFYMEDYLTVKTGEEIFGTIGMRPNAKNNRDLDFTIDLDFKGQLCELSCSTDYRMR
T1 sequence (Q86U44 whole entry, one chain of several, the tested form may be a part): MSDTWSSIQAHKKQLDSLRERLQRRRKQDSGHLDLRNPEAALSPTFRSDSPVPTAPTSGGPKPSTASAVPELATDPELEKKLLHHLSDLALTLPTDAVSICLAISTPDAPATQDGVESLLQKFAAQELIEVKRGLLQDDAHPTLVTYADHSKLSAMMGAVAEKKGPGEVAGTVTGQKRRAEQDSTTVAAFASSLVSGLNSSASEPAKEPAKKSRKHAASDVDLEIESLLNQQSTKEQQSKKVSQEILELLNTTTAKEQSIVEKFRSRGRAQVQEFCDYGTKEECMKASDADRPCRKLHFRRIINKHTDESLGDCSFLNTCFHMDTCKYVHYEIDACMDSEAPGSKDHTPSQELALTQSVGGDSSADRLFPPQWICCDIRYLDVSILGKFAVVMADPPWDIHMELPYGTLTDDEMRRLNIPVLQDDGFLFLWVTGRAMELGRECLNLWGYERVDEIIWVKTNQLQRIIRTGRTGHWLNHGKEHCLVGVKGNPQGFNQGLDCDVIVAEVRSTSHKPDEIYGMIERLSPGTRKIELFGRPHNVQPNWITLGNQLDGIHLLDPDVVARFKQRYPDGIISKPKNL
T3 sequence (Q86U44 whole entry): as the sequence (Q86U44 whole entry, one chain of several, the tested form may be a part) above

Q: What does the source list for CC1=NN(c2ccc(C)c(C)c2)C(=O)/C1=N\Nc1cccc(-c2cccc(C(=O)O)c2)c1O [Eltrombopag]?
A: mode of enzyme inhibition (METTL3-14 complex): noncompetitive inhibitor; remaining activity at 10 µM (PRMT1): 96.1 ± 3.9%; IC50 (METTL3): 7.04 µM; inhibition at 36 µM (METTL14): 59.3%; fold change of IC50, truncated versus full length METTL3-14 [1]: 3.5 fold; IC50 ([1]; 1 μM truncated complex, 1 μM SAM, 500 nM RNA, 5 h): 12 µM; GI50 (MOLM-13 cells [2]): 8.28 µM; GI50 (HL60 cells): 12.9 ± 0.9 µM; GI50 (MV4-11 cells): 14.3 ± 0.1 µM; GI50 (THP-1 cells): 22.3 ± 0.4 µM; inhibition at 1.5 µM (MOLM-13 cells [3]; cytarabine matrix (panel C)): 9.02 ± 5.05%; inhibition at 1.5 µM (MOLM-13 cells [3]; venetoclax matrix (panel A)): 13 ± 2.13%; inhibition at 3 µM (MOLM-13 cells [3]; cytarabine matrix (panel C)): 24.8 ± 2.76%; inhibition at 3 µM (MOLM-13 cells [3]; venetoclax matrix (panel A)): 30 ± 5.01%; inhibition at 6 µM (MOLM-13 cells [3]; cytarabine matrix (panel C)): 61.6 ± 1.03%; inhibition at 6 µM (MOLM-13 cells [3]; venetoclax matrix (panel A)): 69.4 ± 2.33%; inhibition at 12 µM (MOLM-13 cells [3]; cytarabine matrix (panel C)): 93.83 ± 0.61%; inhibition at 12 µM (MOLM-13 cells [3]; venetoclax matrix (panel A)): 94.91 ± 0.86%; safety in clinical studies, combination with azacitidine ([4]; combination with azacitidine compared with azacitidine alone): increased progression to acute myeloid leukemia; safety in clinical studies, monotherapy ([4]; monotherapy): didn’t show any safety concerns
